Measured values taken from ChEMBL document CHEMBL1201862, “PubChem BioAssay data set” (2004).
Active and inactive are the calls of the source. Cut-off read from the data, not from the text of the source, for most assays here: actives have a measured EC50 and inactives only a lower limit.

Experiments:
[1] = target: T1, Corticotropin-releasing factor receptor 2/Corticotropin-releasing factor-binding protein (Homo sapiens, UniProt P24387+Q13324); assay: activators of CRF receptor 2 with binding protein – uHTS hits, confirmation (AID 602473); assay type: functional; details: read-out: EC50_Mean
T1 sequence (Q13324 whole entry): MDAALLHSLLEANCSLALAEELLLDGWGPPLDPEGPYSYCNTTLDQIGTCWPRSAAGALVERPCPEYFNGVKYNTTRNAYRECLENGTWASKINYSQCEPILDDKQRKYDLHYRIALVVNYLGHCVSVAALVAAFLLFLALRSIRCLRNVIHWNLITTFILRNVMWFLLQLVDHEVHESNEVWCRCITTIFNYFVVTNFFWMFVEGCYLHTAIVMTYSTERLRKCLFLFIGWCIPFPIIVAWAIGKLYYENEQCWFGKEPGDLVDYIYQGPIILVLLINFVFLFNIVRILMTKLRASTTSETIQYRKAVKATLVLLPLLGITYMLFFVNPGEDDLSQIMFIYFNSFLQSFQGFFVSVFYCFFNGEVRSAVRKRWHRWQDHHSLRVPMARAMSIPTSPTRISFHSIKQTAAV
T1 sequence (P24387 whole entry): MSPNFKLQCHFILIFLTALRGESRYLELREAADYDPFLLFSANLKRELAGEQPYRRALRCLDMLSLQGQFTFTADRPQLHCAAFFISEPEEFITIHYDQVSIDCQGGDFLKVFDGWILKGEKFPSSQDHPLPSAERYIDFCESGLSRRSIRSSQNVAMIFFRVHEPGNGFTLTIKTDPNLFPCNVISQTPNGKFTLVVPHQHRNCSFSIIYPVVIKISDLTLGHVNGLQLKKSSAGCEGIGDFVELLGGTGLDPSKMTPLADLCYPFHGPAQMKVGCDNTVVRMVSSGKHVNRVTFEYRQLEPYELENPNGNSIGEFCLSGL

[2] = target: T1, Corticotropin-releasing factor receptor 2/Corticotropin-releasing factor-binding protein; assay: Dose Response confirmation of uHTS hits for small molecule antagonists of the CRF-binding protein and CRF-R2 receptor complex.; assay type: functional; details: read-out: IC50_Mean
[3] = Luminescence Cell-Based Dose Confirmation HTS to Identify Activators of 5'UTR Stem-Loop Driven Alpha-Synuclein mRNA Translation in H4 Neuroglioblastoma Cells. [Related pubchem assays: 1829 (Project Summary), 1814 (Primary HTS)]; assay type: functional
[4] = Luminescence Cell-Based Dose Response HTS to Identify Activators of Luciferase Translation or Activity in H4 […] Cells. [Related pubchem assays: 1829 (Project Summary), 1814 (Primary HTS)]; assay type: functional
H9c2 = assay: cells; assay type: functional, cell-based; details: Rattus norvegicus, H9c2, Myocardium;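 note: confirmatory concentration-response retest of ultra-high-throughput screening hits for modulation of myocardial damage; cell death induced by hydrogen peroxide oxidative stress; compound pretreatment for 60 min then peroxide exposure for 2 h; potency is for protecting the cells against peroxide damage rather than for killing them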
H4 = assay: Luminescence Cell-Based Dose Response HTS to Identify Activators of 5'UTR Stem-Loop Driven Prion Protein mRNA Translation in H4 Neuroglioblastoma Cells. [Related pubchem assays: 1829 (Project Summary), 1814 (Primary HTS)]; assay type: functional; details: Homo sapiens
[5] = fluconazole-exposed Candida albicans growth modulators – fluorescence, retest, confirmation (AID 2467); assay type: functional, cell-based
[6] = NIH-3T3 fibroblast cytotoxicity, dose response, cytotoxicity control, cell-based, fluorescence, Alamar Blue, secondary assay (AID 2327); assay type: functional;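 note: NIH-3T3 mouse fibroblasts cultured with fluconazole at 8 µg/mL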
BJ [7] = assay: BJ-TERT-LT-ST fibroblast viability loss – cell-based, RAS-independent, luminescence, dose response (AID 1935); assay type: functional; details: Homo sapiens;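 note: BJ fibroblasts immortalized with TERT plus LT and ST oncogenes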
[8] = DRD fibroblast viability loss – cell-based, non-viral oncogenic, luminescence, dose response (AID 1934); assay type: functional; details: Homo sapiens
BJ [9] = assay: cells; assay type: functional, cell-based; details: Homo sapiens
BJ [10] = assay: BJ-TERT fibroblast viability loss – cell-based, RAS-independent, luminescence, dose response (AID 1933); assay type: functional; details: Homo sapiens
Protein skinhead-1 = target: T2, Protein skinhead-1 (Caenorhabditis elegans, UniProt P34707); assay type: functional
T2 sequence (P34707 whole entry): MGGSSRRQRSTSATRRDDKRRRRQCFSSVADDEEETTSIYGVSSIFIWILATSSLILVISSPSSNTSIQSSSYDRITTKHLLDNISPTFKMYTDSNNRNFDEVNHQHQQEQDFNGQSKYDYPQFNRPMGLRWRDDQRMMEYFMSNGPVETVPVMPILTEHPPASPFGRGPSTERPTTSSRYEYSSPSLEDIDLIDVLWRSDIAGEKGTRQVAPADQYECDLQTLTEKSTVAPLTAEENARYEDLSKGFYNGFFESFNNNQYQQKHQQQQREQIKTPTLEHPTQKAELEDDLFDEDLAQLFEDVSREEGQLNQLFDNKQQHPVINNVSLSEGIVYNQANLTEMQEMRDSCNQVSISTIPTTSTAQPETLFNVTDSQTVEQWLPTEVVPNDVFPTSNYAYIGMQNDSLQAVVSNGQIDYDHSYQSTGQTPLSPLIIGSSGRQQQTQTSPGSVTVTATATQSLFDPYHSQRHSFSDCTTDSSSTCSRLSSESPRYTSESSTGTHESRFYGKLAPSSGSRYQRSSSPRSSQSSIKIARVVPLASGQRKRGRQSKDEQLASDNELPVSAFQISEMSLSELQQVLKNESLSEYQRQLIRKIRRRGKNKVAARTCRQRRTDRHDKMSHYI

Streptococcus = assay: GAS UMAA2166 growth inhibition – luminescence, BacTiterGlo, counter-screen for streptokinase expression inhibitor project, dose response (AID 1915); assay type: functional, organism-based;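 note: potency for reduction of bacterial viability or growth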
[11] = test system: Streptococcus sp. 'group A'; assay: Streptococcus pyogenes SK(-)GAS viability under kanamycin – luminescence, BacTiterGlo, confirmation, counter-screen for streptokinase expression inhibitor project, dose response (AID 1900); assay type: functional, organism-based
Streptokinase A = target: T3, Streptokinase A (Streptococcus pyogenes serotype M1, UniProt P10520); assay: viability-normalized secreted streptokinase activity reduction – plasminogen activation absorbance, OD405, dose response (AID 1914); assay type: functional, Streptococcus pyogenes M1 GAS;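 note: secreted streptokinase activity via plasminogen activation per viability signal from cell pellet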
T3 sequence (P10520 whole entry): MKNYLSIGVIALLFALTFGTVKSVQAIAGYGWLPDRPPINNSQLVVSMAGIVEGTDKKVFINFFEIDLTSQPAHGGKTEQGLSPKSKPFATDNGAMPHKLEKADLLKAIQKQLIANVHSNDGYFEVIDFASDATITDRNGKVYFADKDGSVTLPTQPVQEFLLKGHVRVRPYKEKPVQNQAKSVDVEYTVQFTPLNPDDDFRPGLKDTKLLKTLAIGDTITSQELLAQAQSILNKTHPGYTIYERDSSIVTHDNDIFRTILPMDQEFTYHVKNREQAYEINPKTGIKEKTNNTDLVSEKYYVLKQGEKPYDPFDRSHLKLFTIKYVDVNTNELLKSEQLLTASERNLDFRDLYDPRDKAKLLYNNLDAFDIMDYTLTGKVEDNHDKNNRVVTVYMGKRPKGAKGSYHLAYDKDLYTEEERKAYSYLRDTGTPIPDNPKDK

[12] = Luminescence Cell-Based Dose Confirmation HTS to Identify Inhibitors of Platelet Dense Granule Release. [Related pubchem assays: 1663 (Primary HTS), 1678 (Summary of Project)]; assay type: functional
[13] = target: Luciferin 4-monooxygenase (Photinus pyralis, UniProt P08659); assay: inhibition of purified Photinus pyralis luciferase – biochemical, luminescence, dose response (AID 1891)
Chain of Luciferin 4-monooxygenase (P08659 whole entry): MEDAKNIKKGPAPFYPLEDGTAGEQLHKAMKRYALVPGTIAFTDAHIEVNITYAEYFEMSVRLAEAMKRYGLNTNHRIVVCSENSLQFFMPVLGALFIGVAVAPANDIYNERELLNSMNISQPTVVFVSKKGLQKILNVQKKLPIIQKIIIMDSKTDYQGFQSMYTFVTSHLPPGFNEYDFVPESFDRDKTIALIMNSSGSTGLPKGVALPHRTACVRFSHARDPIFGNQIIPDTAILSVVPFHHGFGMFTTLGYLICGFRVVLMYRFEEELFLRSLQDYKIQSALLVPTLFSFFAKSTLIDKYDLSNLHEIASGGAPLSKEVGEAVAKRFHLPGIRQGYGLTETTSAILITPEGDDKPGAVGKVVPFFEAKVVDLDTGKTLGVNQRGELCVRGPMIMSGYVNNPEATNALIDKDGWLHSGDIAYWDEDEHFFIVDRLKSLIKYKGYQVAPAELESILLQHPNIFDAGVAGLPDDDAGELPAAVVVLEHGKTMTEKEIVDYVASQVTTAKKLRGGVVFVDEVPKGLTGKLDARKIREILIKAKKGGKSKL

[14] = P. falciparum Dd2 growth inhibitors, dose response, SYBR Green, cherry-picked samples (AID 1159567); assay type: functional, cell-based

With COC(=O)c1ccc(OCC(O)CN2C(=O)c3ccccc3S2(=O)=O)cc1 (configuration not stated) the EC50 [1] was > 53 µM (inactive) and the IC50 [2] was > 47.1 µM (inactive).

In the case of O=C(CCc1nc(O)c2ccccc2n1)Nc1nc(-c2cccs2)cs1, the EC50 [3] is reported as 12.5 µM (active), the EC50 [4] is reported as 15.8 µM (active) and the IC50 (H9c2) is reported as 17.3 µM (active). For the same compound, the EC50 (H4) was 104 µM (inconclusive).

With c1ccc(CN2CCc3nc4ccccc4cc3C2)cc1 the EC50 [5] was > 38 µM (not active), the EC50 [3] was 0.215 µM (active) and the EC50 [4] was 33.8 µM (active). The EC50 [6] was > 160 µM (inconclusive) and the EC50 (H4) was 52.7 µM (active).

With CCOc1ccc(NC(=O)CCNS(=O)(=O)c2cccc3nonc23)cc1 the EC50 [1] was > 53 µM (inactive) and the IC50 [2] was > 47.1 µM (inactive).

For CCCC(=O)Nc1ccc2c(c1)nc(CN1CCN(C(=O)OCC)CC1)n2CC, the EC50 (BJ [7]) was > 75 µM (inconclusive), the EC50 [8] was 18 µM (active) and the EC50 (BJ [9]) was 122 µM (active). The EC50 (BJ [10]) was 15.4 µM (inconclusive).

In the case of COc1ccc(-c2cc(C(F)F)n3ncc(C(=O)n4ccnc4C)c3n2)cc1, the EC50 (BJ [7]) is reported as > 150 µM (inconclusive), the EC50 [8] is reported as 7.6 µM (active) and the EC50 (BJ [9]) is reported as 15.3 µM (active). For the same compound, the EC50 (BJ [10]) was 7.36 µM (inconclusive).

With COc1ccc(NC(=O)c2cn(CCC#N)nc2-c2ccc([N+](=O)[O-])cc2)cc1 the EC50 (BJ [7]) was > 150 µM (not active), the EC50 [8] was > 150 µM (not active) and the EC50 (BJ [9]) was > 150 µM (not active). For the same compound, the EC50 (BJ [10]) was > 150 µM (not active).

With Cc1noc(/C=C/N(C)C)c1S(=O)(=O)N1CCC(C(=O)Nc2ccc(Cl)cc2)CC1 the EC50 [1] was > 53 µM (inactive) and the IC50 [2] was > 47.1 µM (inactive).

In the case of c1ccc(-c2cc3nccc(-c4ccccn4)n3n2)cc1, the EC50 [1] is reported as > 53 µM (inactive), the IC50 (Protein skinhead-1) is reported as 47 µM (active) and the IC50 [2] is reported as > 47.1 µM (inactive).

For COc1ccccc1NC1=NC(=O)/C(=C/c2ccc(N(C)C)cc2)S1, the EC50 (Streptococcus) was 46.7 µM (active), the EC50 (BJ [7]) was 64.2 µM (inconclusive) and the EC50 [8] was 1.45 µM (active). For the same compound, the EC50 [11] was 15.1 µM (active), the EC50 (Streptokinase A) was > 150 µM (not active) and the EC50 (BJ [9]) was 59 µM (active). For the same compound, the EC50 (BJ [10]) was 1.91 µM (active).

With Cn1cc(S(=O)(=O)N2CCCC2)cc1C(=O)N1CCN(c2cccc(Cl)c2)CC1 the EC50 [12] was > 112 µM (not active) and the EC50 [13] was > 112 µM (not active).

With COc1cc(OC)cc(C(=O)NC2CC3CCC(C2)N3Cc2ccco2)c1 (configuration not stated) the EC50 [1] was > 53 µM (inactive) and the IC50 [2] was > 47.1 µM (inactive).

For O=C(Cc1ccccc1)Nc1nonc1NC(=O)c1ccccc1, the EC50 [5] was 3.18 µM (active) and the EC50 [6] was > 150 µM (inactive).

For CC(OC(=O)c1ccc(-c2ccc(O)cc2)cc1)C(=O)NC1CCCCC1C (configuration not stated), the EC50 [1] was > 53 µM (inactive) and the IC50 [2] was > 47.1 µM (inactive).

In the case of O=C(Nc1ccc(F)cc1)Nc1ccccc1F, the EC50 [12] is reported as 12.1 µM (active) and the EC50 [13] is reported as 6.85 µM (active).

For C=CCCC(=O)N1CCC(n2nccc2NC(=O)c2ccc(OC)cc2)CC1, the EC50 [1] was > 53 µM (inactive) and the IC50 [2] was > 47.1 µM (inactive).

For C=CCN1C(=O)NC(=O)/C(=C(/CC)NCc2ccc3c(c2)OCO3)C1=O, the EC50 [1] was > 53 µM (inactive) and the IC50 [2] was > 47.1 µM (inactive).

For COc1ccc(C(=O)Nc2ccccc2C(=O)N/N=C/c2ccccc2OC)cc1, the EC50 [12] was 1.11 µM (active) and the EC50 [13] was 0.286 µM (active).

With COc1ccc(C(=O)Nc2ccccc2C(=O)N/N=C/c2ccco2)cc1 the EC50 [12] was 4.14 µM (active) and the EC50 [13] was 0.329 µM (active).

With Cc1ccc(-n2nc(C)c(/C=N/c3ccc(S(=O)(=O)Nc4nccs4)cc3)c2O)cc1 the EC50 (BJ [7]) was > 150 µM (not active), the EC50 [8] was 24 µM (active) and the EC50 (BJ [9]) was > 150 µM (not active). For the same compound, the EC50 (BJ [10]) was 12.8 µM (active).

With CC(C)(O)C#Cc1ccc([C@H]2[C@H](CO)N3CCCCN(C(=O)c4ccc(F)cc4)C[C@@H]23)cc1 the AC50 [14] was 15.3 µM (active).

With COc1cccc(CN2CC3(CN(Cc4ccccn4)C3)c3c([nH]c4cc(OC)ccc34)[C@H]2CO)c1 the AC50 [14] was 5.33 µM (active).

In the case of CN(C)c1ccc2c(c1)[C@@H]1C[C@H](CC(=O)N3CCc4ccccc4C3)O[C@@H](CO)[C@@H]1O2, the AC50 [14] is reported as 7.8 µM (active).
